Test results: patent publication US9296759B2, “Amino-oxazine and amino-dihydrothiazine compounds as beta-secretase modulators and methods of use” (AMGEN INC., priority 2011, dated 2016)

Assays:
[1] = target: BACE 1 (beta secretase enzyme) (Homo sapiens (Human), UniProt P56817); assay: In vitro enzymatic BACE FRET assay; assay type: biochemical; conditions: average IC50
Procedure: In Vitro Enzymatic BACE FRET (Fluorescence Resonance Energy Transfer) Assay
The assay buffer used in this screen is 0.05 M acetate, pH 4.2, 10% DMSO final, 100 uM genapol (which is a nonionic detergent, below its Critical Micelle Concentration). […] This assay is effectively started by the addition of FRET substrate (50 nM) and the combination is incubated for one hour. The FRET assay is terminated with by addition of Tris buffer, which raises the pH to neutrality, and the fluorescence is determined. The FRET substrate is a peptide with commercially available fluorophore and quencher, on opposite sides of the BACE cleavage site. Proteolytic cleavage of the FRET substrate releases quenching of fluorescence (excitation […] and […]).

[2] = system: Aβ40 in conditioned medium of cells stably expressing Amyloid Precursor Protein (APP); assay: In vitro BACE cell-based assay (HEK cell assay, Aβ40 sandwich ELISA); conditions: Homo sapiens, HEK293; average IC50, Aβ40, 24 h incubation
Procedure: In Vitro BACE Cell-Based Assay
The cell-based assay measures inhibition or reduction of Aβ40 in conditioned medium of test compound treated cells expressing amyloid precursor protein.
Cells stably expressing Amyloid Precursor Protein (APP) were plated at a density of 40K cells/well in 96 well plates (Costar). The cells were cultivated for 24 hours at 37° C. and 5% CO2 in DMEM supplemented with 10% FBS. The test compounds were then added to cells in 10-point dose response concentrations with the starting concentration being either 100 μM or 10 μM. The compounds were diluted from stock solutions in DMSO and the final DMSO concentration of the test compounds on cells was 0.1%. After 24 h of incubation with the test compounds the supernatant conditioned media was collected and the Aβ 40 levels were determined using a sandwich ELISA. The IC50 of the compound was calculated from the percent of control or percent inhibition of Aβ 40 as a function of the concentration of the test compound.
The sandwich ELISA to detect Aβ 40 was performed in 96 well microtiter plates, which were pre-treated with goat anti-rabbit IgG (Pierce). The capture and detecting antibody pair that were used to detect Aβ 40 from cell supernatants were affinity purified pAb40 (Biosource) and biotinylated 6E10 (Signet Labs Inc.), respectively. The optimal concentration for the pAb40 antibody was 3 μg/ml in Superblock/TBS (Pierce) that was supplemented with 0.05% Tween 20 (Sigma).
Cellular supernatants were incubated with the capture antibody for 3 h at 4° C., followed by 3 wash steps in TBS-tween (0.05%). The detecting antibody incubation was for 2 h at 4° C., again followed by the wash steps as described previously. The final readout of the ELISA is Time-Resolved Fluorescence (counts per minute) using Delfia reagents Streptavidin-Europium and Enhancement solutions (Perkin Elmer) and the Victor 2 multilabel counter (Perkin Elmer).

Cathepsin D = Cathepsin D (Homo sapiens (Human), UniProt P07339); assay: In vitro enzymatic Cat D (Cathepsin D) FRET assay; assay type: biochemical; conditions: average IC50
Chain of Cathepsin D (P07339 65-412, species assumed): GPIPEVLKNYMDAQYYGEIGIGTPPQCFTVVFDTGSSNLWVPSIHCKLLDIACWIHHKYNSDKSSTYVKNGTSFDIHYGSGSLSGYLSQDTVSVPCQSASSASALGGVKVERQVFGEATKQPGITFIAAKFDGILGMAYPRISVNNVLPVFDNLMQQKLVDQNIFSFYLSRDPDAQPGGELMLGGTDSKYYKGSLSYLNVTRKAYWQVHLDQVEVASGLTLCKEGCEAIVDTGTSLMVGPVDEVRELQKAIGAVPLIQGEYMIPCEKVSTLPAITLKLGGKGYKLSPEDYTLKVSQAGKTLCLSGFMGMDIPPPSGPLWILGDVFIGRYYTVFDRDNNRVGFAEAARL
Procedure: In Vitro Enzymatic Cat D (Cathepsin D) FRET (Fluorescence Resonance Energy Transfer) Assay
Recombinant CathepsinD was expressed in CHO cells. The assay buffer for CathepsinD is 0.05 M citrate pH 3.5, 10% DMSO final, 5 mM CHAPS. […] The assays are effectively started by the addition of different FRET substrates (20 nM for CathepsinD) and the combination is incubated for one hour. The FRET assay is terminated with by addition of Tris buffer, which raises the pH to neutrality, and the fluorescence is determined. The FRET substrate is a peptide with commercially available fluorophore and quencher, on opposite sides of the BACE cleavage site. […] Proteolytic cleavage of the FRET substrate releases quenching of fluorescence (CathepsinD excitation 500 nm and emission 580 nm).

Chain of BACE 1 (beta secretase enzyme) (P56817 46-501): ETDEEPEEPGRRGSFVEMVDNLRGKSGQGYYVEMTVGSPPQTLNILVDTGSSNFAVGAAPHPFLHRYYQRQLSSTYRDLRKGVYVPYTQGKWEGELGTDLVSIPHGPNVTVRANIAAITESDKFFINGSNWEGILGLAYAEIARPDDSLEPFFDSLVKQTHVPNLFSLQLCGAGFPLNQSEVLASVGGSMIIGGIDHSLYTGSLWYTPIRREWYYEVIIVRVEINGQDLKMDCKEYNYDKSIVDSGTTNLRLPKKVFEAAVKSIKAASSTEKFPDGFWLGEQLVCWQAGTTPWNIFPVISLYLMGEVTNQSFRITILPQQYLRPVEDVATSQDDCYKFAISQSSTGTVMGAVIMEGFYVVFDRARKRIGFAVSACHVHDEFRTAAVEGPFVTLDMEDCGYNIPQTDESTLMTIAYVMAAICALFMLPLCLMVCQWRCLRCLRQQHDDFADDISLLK

Compound | IC50 [1] | IC50 [2] | IC50 (Cathepsin D)
N#Cc1ccc(C(=O)Nc2ccc3c(c2)[C@@]2(CCOC(N)=N2)c2cc(C4=CCOCC4)nc(F)c2O3)nc1 [Example 64, N-((5S)-2′-amino-3-(3,6-dihydro-2H-pyran-4-yl)-1-fluoro-5′,6′-dihydrospiro[chromeno[2,3-c]pyridine-5,4′-[1,3]oxazin]-7-yl)-5-cyano-2-pyridinecarboxamide] | 0.74 nM | 0.039 nM | 
NC1=N[C@@]2(CCO1)c1cc(NC(=O)c3ccc(Cl)cn3)ccc1Oc1ncc(-c3ccnc(F)c3)cc12 [Example 90, N-((5S)-2′-amino-3-(2-fluoro-4-pyridinyl)-5′,6′-dihydrospiro[chromeno[2,3-b]pyridine-5,4′-[1,3]oxazin]-7-yl)-5-chloro-2-pyridinecarboxamide] |  | 0.7 nM | 401000 nM
COc1cnc(C(=O)Nc2ccc3c(c2)[C@@]2(CCOC(N)=N2)c2cc(Cl)nc(F)c2O3)cn1 [Example 47, N-((5S)-2′-amino-3-chloro-1-fluoro-5′,6′-dihydrospiro[chromeno[2,3-c]pyridine-5,4′-[1,3]oxazin]-7-yl)-5-methoxy-2-pyrazinecarboxamide] |  |  | 335000 nM
COc1cnc(C(=O)Nc2ccc3c(c2)[C@@]2(CCOC(N)=N2)c2cc(C4CCOCC4)cc(F)c2O3)cn1 [Example 61, N-((4S)-2-amino-5′-fluoro-7′-(tetrahydro-2H-pyran-4-yl)-5,6-dihydrospiro[1,3-oxazine-4,9′-xanthen]-2′-yl)-5-methoxy-2-pyrazinecarboxamide] |  | 7.8 nM | 379000 nM
CC#CCOc1cnc(C(=O)Nc2ccc3c(c2)[C@@]2(CCOC(N)=N2)c2cc(Cl)nc(F)c2O3)cn1 [Example 48, N-((5S)-2′-amino-3-chloro-1-fluoro-5′,6′-dihydrospiro[chromeno[2,3-c]pyridine-5,4′-[1,3]oxazin]-7-yl)-5-(2-butyn-1-yloxy)-2-pyrazinecarboxamide] |  | 0.3 nM | 151000 nM
COc1cc(F)c2c(c1)[C@]1(CCOC(N)=N1)c1cc(NC(=O)c3ccc(Cl)cn3)ccc1O2 [Example 42, N-((4S)-2-amino-5′-fluoro-7′-methoxy-5,6-dihydrospiro[1,3-oxazine-4,9′-xanthen]-2′-yl)-5-chloro-2-pyridinecarboxamide] |  | 20.5 nM | > 400000 nM
COc1ccc(C(=O)Nc2ccc3c(c2)[C@@]2(CCOC(N)=N2)c2cc(OC)cc(F)c2O3)c(F)c1 [Example 77, N-((4S)-2-amino-5′-fluoro-7′-methoxy-5,6-dihydrospiro[1,3-oxazine-4,9′-xanthen]-2′-yl)-2-fluoro-4-methoxybenzamide] |  | 181 nM | 331000 nM
Cc1nc(C(=O)Nc2ccc3c(c2)[C@@]2(CCOC(N)=N2)c2cc(C4=CCCOC4)nc(F)c2O3)cs1 [Example 85, N-((5S)-2′-amino-3-(5,6-dihydro-2H-pyran-3-yl)-1-fluoro-5′,6′-dihydrospiro[chromeno[2,3-c]pyridine-5,4′-[1,3]oxazin]-7-yl)-2-methyl-1,3-thiazole-4-carboxamide] | 0.9 nM | 0.08 nM | 
NC1=N[C@@]2(CCO1)c1cc(NC(=O)c3ccc(Cl)cn3)ccc1Oc1c2cc(-c2ccnc(F)c2)nc1F [Example 91, N-((5S)-2′-amino-1-fluoro-3-(2-fluoro-4-pyridinyl)-5′,6′-dihydrospiro[chromeno[2,3-c]pyridine-5,4′-[1,3]oxazin]-7-yl)-5-chloro-2-pyridinecarboxamide] |  | 0.4 nM | 400000 nM
NC1=N[C@@]2(CCO1)c1cc(NC(=O)c3ccc(Cl)cn3)ccc1Oc1c2cc(Cl)nc1F [Example 38, N-((5S)-2′-amino-3-chloro-1-fluoro-5′,6′-dihydrospiro[chromeno[2,3-c]pyridine-5,4′-[1,3]oxazin]-7-yl)-5-chloro-2-pyridinecarboxamide] |  | 31 nM | > 400000 nM
COc1cc(F)c2c(c1)[C@]1(CCSC(N)=N1)c1cc(NC(=O)c3ccc(Cl)cn3)ccc1O2 [Example 32, N-((4S)-2-amino-5′-fluoro-7′-methoxy-5,6-dihydrospiro[1,3-thiazine-4,9′-xanthen]-2′-yl)-5-chloro-2-pyridinecarboxamide] |  | 31.8 nM | 350000 nM
COc1cc(F)c2c(c1)[C@]1(CCOC(N)=N1)c1cc(NC(=O)c3cnc(OC)cn3)ccc1O2 [Example 75, N-((4S)-2-amino-5′-fluoro-7′-methoxy-5,6-dihydrospiro[1,3-oxazine-4,9′-xanthen]-2′-yl)-5-methoxy-2-pyrazinecarboxamide] |  | 27 nM | 400000 nM
Cc1cccnc1Nc1ccc2c(c1)[C@@]1(CCOC(N)=N1)c1cc(Cl)nc(F)c1O2 [Example 41, (5S)-3-chloro-1-fluoro-N~7~-(3-methyl-2-pyridinyl)-5′,6′-dihydrospiro[chromeno[2,3-c]pyridine-5,4′-[1,3]oxazine]-2′,7-diamine] |  | 279 nM | 386000 nM

Results, then the compound that gave them:

IC50 [1] | IC50 [2] | IC50 (Cathepsin D) | Compound
2.6 nM | 0.6 nM | 311000 nM | NC1=N[C@@]2(CCS1)c1cc(NC(=O)c3ncc(Cl)cc3F)ccc1Oc1c2cc(C2=CCOCC2)nc1F [Example 119, N-((5S)-2′-amino-3-(3,6-dihydro-2H-pyran-4-yl)-1-fluoro-5′,6′-dihydrospiro[chromeno[2,3-c]pyridine-5,4′-[1,3]thiazin]-7-yl)-5-chloro-3-fluoro-2-pyridinecarboxamide]
0.8 nM | 0.4 nM |  | Cc1nc(C(=O)Nc2ccc3c(c2)[C@@]2(CCOC(N)=N2)c2cc(-c4ccnc(F)c4)nc(F)c2O3)cs1 [Example 99, N-((5S)-2′-amino-1-fluoro-3-(2-fluoro-4-pyridinyl)-5′,6′-dihydrospiro[chromeno[2,3-c]pyridine-5,4′-[1,3]oxazin]-7-yl)-2-methyl-1,3-thiazole-4-carboxamide]
2.8 nM | 1.2 nM |  | COc1cnc(C(=O)Nc2ccc3c(c2)[C@@]2(CCSC(N)=N2)c2cc(-c4cncc(F)c4)nc(F)c2O3)cn1 [Example 112, N-((5S)-2′-amino-1-fluoro-3-(5-fluoro-3-pyridinyl)-5′,6′-dihydrospiro[chromeno[2,3-c]pyridine-5,4′-[1,3]thiazin]-7-yl)-5-methoxy-2-pyrazinecarboxamide]
 | 5.7 nM |  | NC1=N[C@@]2(CCO1)c1cc(NC(=O)c3ccc(F)cn3)ccc1Oc1c(F)cc(-c3ccnc(F)c3)cc12 [Example 102, N-((4S)-2-amino-5′-fluoro-7′-(2-fluoro-4-pyridinyl)-5,6-dihydrospiro[1,3-oxazine-4,9′-xanthen]-2′-yl)-5-fluoro-2-pyridinecarboxamide]
 | 0.5 nM | 400000 nM | N#Cc1ccc(C(=O)Nc2ccc3c(c2)[C@@]2(CCOC(N)=N2)c2cc(-c4ccnc(F)c4)cc(F)c2O3)nc1 [Example 108, N-((4S)-2-amino-5′-fluoro-7′-(2-fluoro-4-pyridinyl)-5,6-dihydrospiro[1,3-oxazine-4,9′-xanthen]-2′-yl)-5-cyano-2-pyridinecarboxamide]
 | 8.8 nM |  | COc1nc(C2=CCOCC2)cc2c1Oc1ccc(NC(=O)c3ccc(F)cn3)cc1[C@@]21CCOC(N)=N1 [Example 96, N-((5S)-2′-amino-3-(3,6-dihydro-2H-pyran-4-yl)-1-methoxy-5′,6′-dihydrospiro[chromeno[2,3-c]pyridine-5,4′-[1,3]oxazin]-7-yl)-5-fluoro-2-pyridinecarboxamide]
 |  | 400000 nM | COc1ccc(C(=O)Nc2ccc3c(c2)[C@@]2(CCOC(N)=N2)c2cc(-c4ccnc(F)c4)nc(F)c2O3)nc1 [Example 98, N-((5S)-2′-amino-1-fluoro-3-(2-fluoro-4-pyridinyl)-5′,6′-dihydrospiro[chromeno[2,3-c]pyridine-5,4′-[1,3]oxazin]-7-yl)-5-methoxy-2-pyridinecarboxamide]
